According to patent US9833497B2, “Human originated EGF domain proteins and use of the same” (CHENGDU SOURCEBIO LIMITED-LIABILITY COMPANY, priority 2013, dated 2017):

test system: E. coli DH5α; test: Antibacterial activity: MIC and growth curve against E. coli DH5α in 96-well plate; type: cell-based; conditions: minimal inhibitory concentration against E. coli DH5α; 96-well plate, 5×10^5 CFU/mL, 37° C., judged after 8 h
Procedure, shortened: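 MIC taken as lowest protein level with no bacterial growth, tracked by A600 every 30 min during 37 °C, 175 rpm culture. Two-fold protein series 50-12.5 μg/mL final, triplicate wells, against 5×10^5 CFU/mL of LB-washed mid-log cells.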

Substance	MIC [mg/L]
PRT1117 (EVDECASAPCLHGGSCLDGVGSFRCVCAPGYGGTRCQ; listed as Homo sapiens)	50
PRT1033 (LYVPCAPSPCVNGGTCRQTGDFTFECNCLPETVRRGTE; listed as Homo sapiens)	50
PRT869 (CKCNLHATVCVYDNSKLTCECEHNTTGPDCGKCKKNYQGRPWSPGSYLPIPKGTANTCIP; listed as Homo sapiens)	12.5

test system: E. coli BL21; test: MIC against Gram-negative bacteria: E. coli BL21; type: cell-based; conditions: 10 h cultivation at 37° C., 5×10^5 CFU/mL, two-fold serial dilution
Procedure, shortened: (§1)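 Read-out is absence of bacterial growth, with MIC set at the lowest recombinant protein concentration achieving it. Bacteria, pre-grown in LB to McFarland 0.5 and resuspended, were exposed at 5×10^5 CFU/mL to two-fold diluted human EGF domain proteins in triplicate at 37° C, 175 rpm.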

Substance	MIC E. coli BL21 [mg/L]
PRT1117 (EVDECASAPCLHGGSCLDGVGSFRCVCAPGYGGTRCQ; listed as Homo sapiens)	12.5

same assay, conditions: E. coli BL21; 10 h cultivation at 37° C.

Substance	MIC [mg/L]
PRT1033 (LYVPCAPSPCVNGGTCRQTGDFTFECNCLPETVRRGTE; listed as Homo sapiens)	12.5

same assay, conditions: E. coli BL21; 10 h cultivation at 37° C.; 5×10^5 CFU/mL

Substance	MIC (μg/mL) E. coli BL21 [µg/mL]
PRT869 (CKCNLHATVCVYDNSKLTCECEHNTTGPDCGKCKKNYQGRPWSPGSYLPIPKGTANTCIP; listed as Homo sapiens)	25

test system: Pseudomonas aeruginosa; test: MIC against Gram-negative bacteria: Pseudomonas aeruginosa; type: cell-based; conditions: 10 h cultivation at 37° C., 5×10^5 CFU/mL, two-fold serial dilution
Procedure, shortened: as §1

Substance	MIC P. aeruginosa [mg/L]
PRT1117 (EVDECASAPCLHGGSCLDGVGSFRCVCAPGYGGTRCQ; listed as Homo sapiens)	50

same assay, conditions: P. aeruginosa; 10 h cultivation at 37° C.

Substance	MIC [mg/L]
PRT1033 (LYVPCAPSPCVNGGTCRQTGDFTFECNCLPETVRRGTE; listed as Homo sapiens)	50

same assay, conditions: P. aeruginosa; 10 h cultivation at 37° C.; 5×10^5 CFU/mL

Substance	MIC (μg/mL) P. aeruginosa [µg/mL]
PRT869 (CKCNLHATVCVYDNSKLTCECEHNTTGPDCGKCKKNYQGRPWSPGSYLPIPKGTANTCIP; listed as Homo sapiens)	12.5

test system: Klebsiella pneumonia; test: MIC against Gram-negative bacteria: Klebsiella pneumonia; type: cell-based; conditions: 10 h cultivation at 37° C., 5×10^5 CFU/mL, two-fold serial dilution
Procedure, shortened: as §1

Substance	MIC K. pneumonia [mg/L]
PRT1117 (EVDECASAPCLHGGSCLDGVGSFRCVCAPGYGGTRCQ; listed as Homo sapiens)	12.5

same assay, conditions: K. pneumonia; 10 h cultivation at 37° C.

Substance	MIC [mg/L]
PRT1033 (LYVPCAPSPCVNGGTCRQTGDFTFECNCLPETVRRGTE; listed as Homo sapiens)	25

same assay, conditions: K. pneumonia; 10 h cultivation at 37° C.; 5×10^5 CFU/mL

Substance	MIC (μg/mL) K. pneumonia [µg/mL]
PRT869 (CKCNLHATVCVYDNSKLTCECEHNTTGPDCGKCKKNYQGRPWSPGSYLPIPKGTANTCIP; listed as Homo sapiens)	12.5

test system: Enterobacter cloacae; test: MIC against Gram-negative bacteria: Enterobacter cloacae; type: cell-based; conditions: 10 h cultivation at 37° C., 5×10^5 CFU/mL, two-fold serial dilution
Procedure, shortened: as §1

Substance	MIC E. cloacae [mg/L]
PRT1117 (EVDECASAPCLHGGSCLDGVGSFRCVCAPGYGGTRCQ; listed as Homo sapiens)	50

same assay, conditions: E. cloacae; 10 h cultivation at 37° C.

Substance	MIC [mg/L]
PRT1033 (LYVPCAPSPCVNGGTCRQTGDFTFECNCLPETVRRGTE; listed as Homo sapiens)	50

same assay, conditions: E. cloacae; 10 h cultivation at 37° C.; 5×10^5 CFU/mL

Substance	MIC (μg/mL) E. cloacae [µg/mL]
PRT869 (CKCNLHATVCVYDNSKLTCECEHNTTGPDCGKCKKNYQGRPWSPGSYLPIPKGTANTCIP; listed as Homo sapiens)	12.5

test system: Aeromonas hydrophila; test: MIC against Gram-negative bacteria: Aeromonas hydrophila; type: cell-based; conditions: 10 h cultivation at 37° C., 5×10^5 CFU/mL, two-fold serial dilution
Procedure, shortened: as §1

Substance	MIC A. hydrophila [mg/L]
PRT1117 (EVDECASAPCLHGGSCLDGVGSFRCVCAPGYGGTRCQ; listed as Homo sapiens)	12.5

same assay, conditions: A. hydrophila; 10 h cultivation at 37° C.

Substance	MIC [mg/L]
PRT1033 (LYVPCAPSPCVNGGTCRQTGDFTFECNCLPETVRRGTE; listed as Homo sapiens)	12.5

same assay, conditions: A. hydrophila; 10 h cultivation at 37° C.; 5×10^5 CFU/mL

Substance	MIC (μg/mL) A. hydrophila [µg/mL]
PRT869 (CKCNLHATVCVYDNSKLTCECEHNTTGPDCGKCKKNYQGRPWSPGSYLPIPKGTANTCIP; listed as Homo sapiens)	12.5

test system: Citrobacter diversus; test: MIC against Gram-negative bacteria: Citrobacter diversus; type: cell-based; conditions: 10 h cultivation at 37° C., 5×10^5 CFU/mL, two-fold serial dilution
Procedure, shortened: as §1

Substance	MIC C. diversus [mg/L]
PRT1117 (EVDECASAPCLHGGSCLDGVGSFRCVCAPGYGGTRCQ; listed as Homo sapiens)	25

same assay, conditions: C. diversus; 10 h cultivation at 37° C.

Substance	MIC [mg/L]
PRT1033 (LYVPCAPSPCVNGGTCRQTGDFTFECNCLPETVRRGTE; listed as Homo sapiens)	50

same assay, conditions: C. diversus; 10 h cultivation at 37° C.; 5×10^5 CFU/mL

Substance	MIC (μg/mL) C. diversus [µg/mL]
PRT869 (CKCNLHATVCVYDNSKLTCECEHNTTGPDCGKCKKNYQGRPWSPGSYLPIPKGTANTCIP; listed as Homo sapiens)	12.5

test system: Moraxella catarrhalis; test: MIC against Gram-negative bacteria: Moraxella catarrhalis; type: cell-based; conditions: 10 h cultivation at 37° C., 5×10^5 CFU/mL, two-fold serial dilution
Procedure, shortened: as §1

Substance	MIC M. catarrhalis [mg/L]
PRT1117 (EVDECASAPCLHGGSCLDGVGSFRCVCAPGYGGTRCQ; listed as Homo sapiens)	12.5

same assay, conditions: M. catarrhalis; 10 h cultivation at 37° C.

Substance	MIC [mg/L]
PRT1033 (LYVPCAPSPCVNGGTCRQTGDFTFECNCLPETVRRGTE; listed as Homo sapiens)	100

same assay, conditions: M. catarrhalis; 10 h cultivation at 37° C.; 5×10^5 CFU/mL

Substance	MIC (μg/mL) M. catarrhalis [µg/mL]
PRT869 (CKCNLHATVCVYDNSKLTCECEHNTTGPDCGKCKKNYQGRPWSPGSYLPIPKGTANTCIP; listed as Homo sapiens)	12.5

test system: Proteus mirabilis; test: MIC against Gram-negative bacteria: Proteus mirabilis; type: cell-based; conditions: 10 h cultivation at 37° C., 5×10^5 CFU/mL, two-fold serial dilution
Procedure, shortened: as §1

Substance	MIC P. mirabilis [mg/L]
PRT1117 (EVDECASAPCLHGGSCLDGVGSFRCVCAPGYGGTRCQ; listed as Homo sapiens)	25

same assay, conditions: P. mirabilis; 10 h cultivation at 37° C.

Substance	MIC [mg/L]
PRT1033 (LYVPCAPSPCVNGGTCRQTGDFTFECNCLPETVRRGTE; listed as Homo sapiens)	50

same assay, conditions: P. mirabilis; 10 h cultivation at 37° C.; 5×10^5 CFU/mL

Substance	MIC (μg/mL) P. mirabilis [µg/mL]
PRT869 (CKCNLHATVCVYDNSKLTCECEHNTTGPDCGKCKKNYQGRPWSPGSYLPIPKGTANTCIP; listed as Homo sapiens)	12.5

test system: Proteus vulgaris; test: MIC against Gram-negative bacteria: Proteus vulgaris; type: cell-based; conditions: 10 h cultivation at 37° C., 5×10^5 CFU/mL, two-fold serial dilution
Procedure, shortened: as §1

Substance	MIC P. vulgaris [mg/L]
PRT1117 (EVDECASAPCLHGGSCLDGVGSFRCVCAPGYGGTRCQ; listed as Homo sapiens)	12.5

same assay, conditions: P. vulgaris; 10 h cultivation at 37° C.

Substance	MIC [mg/L]
PRT1033 (LYVPCAPSPCVNGGTCRQTGDFTFECNCLPETVRRGTE; listed as Homo sapiens)	25

same assay, conditions: P. vulgaris; 10 h cultivation at 37° C.; 5×10^5 CFU/mL

Substance	MIC (μg/mL) P. vulgaris [µg/mL]
PRT869 (CKCNLHATVCVYDNSKLTCECEHNTTGPDCGKCKKNYQGRPWSPGSYLPIPKGTANTCIP; listed as Homo sapiens)	12.5

test system: Serratia marcescens; test: MIC against Gram-negative bacteria: Serratia marcescens; type: cell-based; conditions: 10 h cultivation at 37° C., 5×10^5 CFU/mL, two-fold serial dilution
Procedure, shortened: as §1

Substance	MIC S. marcescens [mg/L]
PRT1117 (EVDECASAPCLHGGSCLDGVGSFRCVCAPGYGGTRCQ; listed as Homo sapiens)	25

same assay, conditions: S. marcescens; 10 h cultivation at 37° C.

Substance	MIC [mg/L]
PRT1033 (LYVPCAPSPCVNGGTCRQTGDFTFECNCLPETVRRGTE; listed as Homo sapiens)	50

same assay, conditions: S. marcescens; 10 h cultivation at 37° C.; 5×10^5 CFU/mL

Substance	MIC (μg/mL) S. marcescens [µg/mL]
PRT869 (CKCNLHATVCVYDNSKLTCECEHNTTGPDCGKCKKNYQGRPWSPGSYLPIPKGTANTCIP; listed as Homo sapiens)	50
